Experimental data taken from PubChem BioAssay (NCI).
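48-hour exposure; five concentrations; linearly interpolated endpoints. Abbreviation: GI50, concentration required for 50% inhibition of growth. Definition used: TGI = concentration required for complete inhibition of growth.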

Experiments:
Assay in all cases: NCI tumour cell line growth inhibition, 48 h
SR leukemia = system: SR leukemia
DU-145 prostate = system: DU-145 prostate
MDA-MB-435 = system: MDA-MB-435
PC-3 prostate = system: PC-3 prostate
MCF7 breast = system: MCF7 breast
MDA-MB-231 breast = system: MDA-MB-231 breast
HS 578T breast = system: HS 578T breast
M19-MEL melanoma = system: M19-MEL melanoma
XF 498 CNS = system: XF 498 CNS
KM20L2 colon = system: KM20L2 colon
DMS 114 small cell lung = system: DMS 114 small cell lung
MDA-N = system: MDA-N

Fc1cc(C2=Nn3c(nnc3-c3cc(F)c(Cl)cc3Cl)SC2)c(Cl)cc1Cl
GI50 (SR leukemia): 25.4 µM | TGI (SR leukemia): > 100 µM | GI50 (DU-145 prostate): 36.6 µM | TGI (DU-145 prostate): > 100 µM | GI50 (MDA-MB-435): 27.8 µM | TGI (MDA-MB-435): 83.2 µM | GI50 (PC-3 prostate): 16.9 µM | TGI (PC-3 prostate): > 100 µM | GI50 (MCF7 breast): 16.8 µM | TGI (MCF7 breast): > 100 µM | GI50 (MDA-MB-231 breast): 13.4 µM | TGI (MDA-MB-231 breast): 34.5 µM | GI50 (HS 578T breast): 21.9 µM | TGI (HS 578T breast): 55 µM

CC12CCC3C(CCC4(O)C=CCCC34C=O)C1(O)CC(O)C2c1ccc(=O)oc1 (stereo unspecified)
TGI (M19-MEL melanoma): 0.264 µM | TGI (XF 498 CNS): 0.158 µM | TGI (MCF7 breast): 0.344 µM | TGI (KM20L2 colon): 0.267 µM

Cc1ccc(NCCO)cc1
TGI (SR leukemia): > 100 µM | TGI (XF 498 CNS): > 100 µM | TGI (KM20L2 colon): > 100 µM | TGI (DMS 114 small cell lung): > 100 µM

COc1ccc(-c2nnc3c4ccccc4sn23)cc1
TGI (SR leukemia): > 100 µM | TGI (M19-MEL melanoma): > 100 µM | TGI (KM20L2 colon): > 100 µM | TGI (DMS 114 small cell lung): 93.8 µM

Cc1cc(C)c(S(=O)(=O)N(CCCCCCN)OCCCON(CCCCCCN)S(=O)(=O)c2c(C)cc(C)cc2C)c(C)c1
TGI (DU-145 prostate): 2.76 µM | TGI (MDA-MB-435): 3.99 µM | TGI (MDA-N): 3.61 µM | TGI (PC-3 prostate): 3.15 µM | TGI (MCF7 breast): 3.66 µM | TGI (MDA-MB-231 breast): 3.21 µM | TGI (HS 578T breast): 4.32 µM

COc1ccc2c(c1)C(=O)/C(=C/c1ccccc1)C2
TGI (SR leukemia): > 100 µM | TGI (DU-145 prostate): > 100 µM | TGI (MDA-MB-435): > 100 µM | TGI (MDA-N): > 100 µM | TGI (PC-3 prostate): > 100 µM | TGI (MCF7 breast): > 100 µM | TGI (HS 578T breast): > 100 µM

CCCCN(CCCC)C1(c2cc3ccccc3s2)CCCCC1
TGI (SR leukemia): 33.5 µM | TGI (DU-145 prostate): 30 µM | TGI (MDA-MB-435): 27.3 µM | TGI (MDA-N): 31.5 µM | TGI (PC-3 prostate): 34.1 µM | TGI (MCF7 breast): 32.1 µM | TGI (MDA-MB-231 breast): 30.2 µM

CC1(C)CCCC2(C)[C@@H]1CC[C@]13C[C@](C)(CC[C@@H]21)[C@@H]3CO (stereo partly specified)
TGI (M19-MEL melanoma): > 100 µM | TGI (XF 498 CNS): > 100 µM | TGI (KM20L2 colon): > 100 µM | TGI (DMS 114 small cell lung): > 100 µM

CCNc1nc2c(=O)n(C)c(=O)n(C)c2s1
TGI (M19-MEL melanoma): > 100 µM | TGI (XF 498 CNS): > 100 µM | TGI (KM20L2 colon): > 100 µM

C=C1CC2(C)CCC(OC(=O)C3(C)OC3C)C(C)(OC(C)=O)C2CC1=C(C)C (stereo unspecified)
TGI (SR leukemia): > 100 µM | TGI (DU-145 prostate): > 100 µM | TGI (MDA-MB-435): > 100 µM | TGI (MDA-N): > 100 µM | TGI (PC-3 prostate): > 100 µM | TGI (MCF7 breast): > 100 µM | TGI (MDA-MB-231 breast): > 100 µM | TGI (HS 578T breast): > 100 µM

O=C(O)CSc1nc2ccccc2[nH]1
TGI (SR leukemia): > 100 µM | TGI (DU-145 prostate): > 100 µM | TGI (MDA-MB-435): > 100 µM | TGI (MDA-N): > 100 µM | TGI (PC-3 prostate): > 100 µM | TGI (MDA-MB-231 breast): > 100 µM | TGI (HS 578T breast): > 100 µM

ClCc1nnc2n1-c1ccc(Cl)cc1SC2
TGI (M19-MEL melanoma): 10.4 µM | TGI (XF 498 CNS): 20 µM | TGI (MCF7 breast): 12.2 µM | TGI (KM20L2 colon): 15.9 µM | TGI (DMS 114 small cell lung): 9.58 µM

NCCSC1(O)C(=O)c2ccccc2-c2ccccc21 (stereo unspecified)
TGI (SR leukemia): 1.88 µM | TGI (DU-145 prostate): 2.28 µM | TGI (MDA-MB-435): 0.207 µM | TGI (PC-3 prostate): 2.56 µM | TGI (MCF7 breast): 3.64 µM | TGI (MDA-MB-231 breast): 2.53 µM | TGI (HS 578T breast): 6.2 µM

CCOC(=O)c1csc(NC(=O)CCN2CCOCC2)n1
TGI (SR leukemia): > 100 µM | TGI (DU-145 prostate): > 100 µM | TGI (MDA-MB-435): > 100 µM | TGI (MDA-N): > 100 µM | TGI (PC-3 prostate): > 100 µM | TGI (MCF7 breast): > 100 µM | TGI (MDA-MB-231 breast): > 100 µM

COc1cc(CN(C)N2C(=O)c3cccc4cc([N+](=O)[O-])cc(c34)C2=O)cc(OC)c1OC
TGI (SR leukemia): > 100 µM | TGI (DU-145 prostate): > 100 µM | TGI (MDA-MB-435): > 100 µM | TGI (MDA-N): > 100 µM | TGI (PC-3 prostate): > 100 µM | TGI (MCF7 breast): > 100 µM | TGI (MDA-MB-231 breast): > 100 µM | TGI (HS 578T breast): > 100 µM

O=C(NC/C=C/CO)c1ccccc1
TGI (M19-MEL melanoma): > 100 µM | TGI (XF 498 CNS): > 100 µM | TGI (MCF7 breast): > 100 µM | TGI (KM20L2 colon): > 100 µM | TGI (DMS 114 small cell lung): > 100 µM

O=c1n(Cc2ccccc2)c2ccccc2n1CC1CS1 (stereo unspecified)
TGI (SR leukemia): > 100 µM | TGI (M19-MEL melanoma): > 100 µM | TGI (XF 498 CNS): > 100 µM | TGI (KM20L2 colon): > 100 µM | TGI (DMS 114 small cell lung): > 100 µM
